Patent US8404859B2, “Thiazole and thiophene compounds” (Hoffmann-La Roche Inc., priority 2011, dated 2013)
pIC50: −log10 of the molar value.

Legend:
[1] = molecular target: Mac-1/ICAM-1 (Homo sapiens, UniProt P05107+P11215); assay: Mac-1/ICAM-1 ELISA; settings: Mac-1 receptor coated plates, 5dICAM-Fc binding
Experimental: (§1) sLFA-1/ICAM-1 ELISA and Mac-1/ICAM-1 ELISA
(§2) Plates were coated with either 50 μl/well of 2.0 ug/ml solution of sLFA-1 or Mac-1 receptor in divalent cation buffer (1 mM MnCI2, 0.14M NaCl, 20 mM HEPES pH 7.2) at 4° C. overnight. Two hundred fifty μl of blocking buffer (1% BSA in divalent cation buffer) was added to each well 1 hour at 37° C. Plates were washed 3 times with wash buffer (TBS/0.05% Tween-20/1 mM MnCl2). The compound to be tested was solubilized in DMSO. A series of 1:3 dilutions were performed to achieve a concentration range of 0.45 nM-3 uM. Fifty μl of binding buffer (0.5% BSA in divalent cation buffer)/1% DMSO and 50 μl of the solutions to be tested were added to the appropriate wells and incubated for 1 hour. Fifty μl of 5dICAM-Fc (27 ng/ml) was added to the appropriate wells and 50 μl binding buffer was added to non-specific binding wells and incubated for 2 hours and washed. One hundred μl of 1:4000 HRP-goat anti-huIgG was added to each well and incubated for 1 hour and washed. One hundred μl of 1:1 TMB solution was added to each well and developed for 20 min at room temperature. Color development was stopped by adding 100 μl H3PO4 to each well. Absorbance was measured at 450 nm.

[2] = molecular target: sLFA-1/ICAM-1 (Homo sapiens, UniProt P05107+P20701, DEL701-769); assay: sLFA-1/ICAM-1 ELISA; settings: sLFA-1 coated plates, 5dICAM-Fc binding, read-out: LFA/ICAM (IC50)
Experimental: as §1, §2

Chain of Mac-1/ICAM-1 (P05107 23-769, other chains not shown): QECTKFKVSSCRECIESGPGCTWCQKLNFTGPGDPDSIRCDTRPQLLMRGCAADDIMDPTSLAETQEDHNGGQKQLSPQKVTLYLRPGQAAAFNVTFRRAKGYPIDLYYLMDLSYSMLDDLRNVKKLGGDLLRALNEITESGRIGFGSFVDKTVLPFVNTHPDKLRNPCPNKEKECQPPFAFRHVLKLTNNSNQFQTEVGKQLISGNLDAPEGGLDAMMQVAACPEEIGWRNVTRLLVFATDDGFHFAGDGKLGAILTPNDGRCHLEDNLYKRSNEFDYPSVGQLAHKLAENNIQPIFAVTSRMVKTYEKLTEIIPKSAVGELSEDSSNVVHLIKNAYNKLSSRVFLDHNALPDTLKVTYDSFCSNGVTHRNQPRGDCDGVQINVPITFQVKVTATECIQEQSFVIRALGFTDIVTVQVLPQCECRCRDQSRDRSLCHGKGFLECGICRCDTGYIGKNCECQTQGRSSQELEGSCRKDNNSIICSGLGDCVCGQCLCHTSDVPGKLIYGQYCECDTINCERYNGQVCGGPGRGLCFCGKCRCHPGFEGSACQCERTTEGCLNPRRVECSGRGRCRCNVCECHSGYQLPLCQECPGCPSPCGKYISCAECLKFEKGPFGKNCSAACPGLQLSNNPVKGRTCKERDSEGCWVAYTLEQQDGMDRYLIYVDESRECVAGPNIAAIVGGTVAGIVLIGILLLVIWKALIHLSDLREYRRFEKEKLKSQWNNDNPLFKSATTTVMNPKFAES
Chain of sLFA-1/ICAM-1 (P20701 26-1090 limits assumed, stated change not applied): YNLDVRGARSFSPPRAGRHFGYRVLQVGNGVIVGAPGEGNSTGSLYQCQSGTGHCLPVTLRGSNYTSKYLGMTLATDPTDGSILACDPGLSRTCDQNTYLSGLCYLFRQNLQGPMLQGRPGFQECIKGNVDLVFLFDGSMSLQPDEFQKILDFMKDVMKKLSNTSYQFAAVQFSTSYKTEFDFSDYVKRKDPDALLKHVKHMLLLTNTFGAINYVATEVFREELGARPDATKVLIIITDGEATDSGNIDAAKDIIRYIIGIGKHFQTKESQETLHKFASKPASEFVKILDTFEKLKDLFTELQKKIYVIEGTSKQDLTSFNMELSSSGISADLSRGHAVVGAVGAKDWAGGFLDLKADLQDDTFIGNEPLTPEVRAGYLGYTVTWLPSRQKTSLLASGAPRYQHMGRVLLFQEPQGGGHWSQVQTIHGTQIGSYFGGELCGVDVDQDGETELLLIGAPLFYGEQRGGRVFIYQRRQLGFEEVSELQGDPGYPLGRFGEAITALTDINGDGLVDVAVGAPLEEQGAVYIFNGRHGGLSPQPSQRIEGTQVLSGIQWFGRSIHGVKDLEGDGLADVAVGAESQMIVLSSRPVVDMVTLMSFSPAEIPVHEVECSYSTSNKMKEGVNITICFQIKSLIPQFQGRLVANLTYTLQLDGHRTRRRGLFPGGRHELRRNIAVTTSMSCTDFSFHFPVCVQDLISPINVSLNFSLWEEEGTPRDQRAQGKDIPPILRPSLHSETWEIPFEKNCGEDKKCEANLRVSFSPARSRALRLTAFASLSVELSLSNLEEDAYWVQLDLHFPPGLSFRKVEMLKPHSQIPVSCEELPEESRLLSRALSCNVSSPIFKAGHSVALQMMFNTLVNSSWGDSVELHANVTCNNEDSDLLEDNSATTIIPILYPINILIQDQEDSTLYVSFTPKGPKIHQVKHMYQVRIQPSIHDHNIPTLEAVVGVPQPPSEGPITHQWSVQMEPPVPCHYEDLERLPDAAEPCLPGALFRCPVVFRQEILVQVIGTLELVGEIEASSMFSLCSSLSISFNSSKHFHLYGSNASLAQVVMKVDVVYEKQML
Chain of sLFA-1/ICAM-1 (P05107 23-700 limits assumed, stated change not applied): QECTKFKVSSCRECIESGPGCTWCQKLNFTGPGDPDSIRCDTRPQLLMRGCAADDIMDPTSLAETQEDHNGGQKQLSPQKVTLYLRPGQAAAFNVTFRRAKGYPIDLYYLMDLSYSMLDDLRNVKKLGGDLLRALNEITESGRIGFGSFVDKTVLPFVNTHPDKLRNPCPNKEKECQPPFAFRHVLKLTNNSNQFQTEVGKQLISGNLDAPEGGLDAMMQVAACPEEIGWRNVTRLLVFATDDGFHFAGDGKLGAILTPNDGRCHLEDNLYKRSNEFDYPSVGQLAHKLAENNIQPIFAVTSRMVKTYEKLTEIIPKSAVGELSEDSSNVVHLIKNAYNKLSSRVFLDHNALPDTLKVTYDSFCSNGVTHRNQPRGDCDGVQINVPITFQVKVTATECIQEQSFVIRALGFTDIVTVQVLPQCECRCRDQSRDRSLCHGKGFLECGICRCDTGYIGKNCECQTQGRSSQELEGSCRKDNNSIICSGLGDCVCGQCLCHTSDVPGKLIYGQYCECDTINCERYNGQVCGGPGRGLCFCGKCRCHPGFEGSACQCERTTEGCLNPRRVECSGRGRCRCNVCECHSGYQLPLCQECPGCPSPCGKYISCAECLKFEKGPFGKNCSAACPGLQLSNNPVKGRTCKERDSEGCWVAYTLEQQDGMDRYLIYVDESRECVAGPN

For `CCc1cc(C(=O)NCc2cccc(O)c2)sc1C(=O)N[C@@H](CNC(=O)c1cccs1)C(=O)O` [Example 61, (S)-2-{[3-Ethyl-5-(3-hydroxy-benzylcarbamoyl)-thiophene-2-carbonyl]-amino}-3-[(thiophene-2-carbonyl)-amino]-propionic acid], the pIC50 [1] was 7.51 and the pIC50 [2] was 7.80.

For `Cc1nc(NC(=O)CCc2cccc(O)c2)sc1C(=O)N[C@@H](CNC(=O)c1cc(O)cc(O)c1)C(=O)O` [Example 10, (S)-3-(3,5-Dihydroxy-benzoylamino)-2-({2-[3-(3-hydroxy-phenyl)-propionylamino]-4-methyl-thiazole-5-carbonyl}-amino)-propionic acid], the pIC50 [1] was 7.70 and the pIC50 [2] was 7.36.

For `Cc1cc(C(=O)NCc2cccc3[nH]ccc23)sc1C(=O)N[C@@H](CNC(=O)c1cccs1)C(=O)O` [Example 34, (S)-2-({5-[(1H-indol-4-ylmethyl)carbamoyl]-3-methyl-thiophen-2-carbonyl}-amino)-3-[(thiophene-2-carbonyl)-amino]-propionic acid], the pIC50 [1] was less than 5.52 and the pIC50 [2] was 6.29.

For `O=C(NC[C@H](NC(=O)c1sc(C(=O)NCc2cccc3[nH]ccc23)cc1C(F)(F)F)C(=O)O)c1cccs1` [Example 50, (S)-2-({5-[(1H-Indol-4-ylmethyl)-carbamoyl]-3-trifluoromethyl-thiophene-2-carbonyl}-amino)-3-[(thiophene-2-carbonyl)-amino]-propionic acid], the pIC50 [1] was less than 5.52 and the pIC50 [2] was 6.46.

`Cc1cc(C(=O)NCc2cccc3c2CC(=O)N3)sc1C(=O)N[C@@H](CNC(=O)c1cccs1)C(=O)O` [Example 35, (S)-2-({3-methyl-5-[(2-oxo-2,3-dihydro-11′-indol-4-ylmethyl)carbamoyl]-thiophen-2-carbonyl}-amino)-3-[(thiophene-2-carbonyl)-amino]-propionic acid] was tested, and the pIC50 [1] was less than 5.52 and the pIC50 [2] was 6.17.

Work on `O=C(NC[C@H](NC(=O)c1sc(C(=O)NCc2cccc(O)c2)cc1C(F)(F)F)C(=O)O)c1cccs1` [Example 52, (S)-2-{[5-(3-Hydroxy-benzylcarbamoyl)-3-trifluoromethyl-thiophene-2-carbonyl]-amino}-3-[(thiophene-2-carbonyl)-amino]-propionic acid] yielded a pIC50 [1] of 6.94 and a pIC50 [2] of 7.51.

`CC(C)(C)c1cc(C(=O)NCc2cccc(O)c2)sc1C(=O)N[C@@H](CNC(=O)c1cccs1)C(=O)O` [Example 33] gave a pIC50 [1] of 6.52 and a pIC50 [2] of 6.83.

For `Cc1nc(NC(=O)Cc2cccc(O)c2)sc1C(=O)N[C@@H](CNC(=O)c1cccs1)C(=O)O` [Example 2, (S)-2-({2-[2-(3-Hydroxy-phenyl)-acetylamino]-4-methyl-thiazole-5-carbonyl}-amino)-3-[(thiophene-2-carbonyl)-amino]-propionic acid], the pIC50 [1] was 7.24 and the pIC50 [2] was 8.40.

`Cc1nc(NC(=O)Cc2cccc3[nH]ncc23)sc1C(=O)N[C@@H](CNC(=O)c1cc(O)cc(O)c1)C(=O)O` [Example 15, (S)-3-(3,5-Dihydroxy-benzoylamino)-2-{[2-(2-1H-indazol-4-yl-acetylamino)-4-methyl-thiazole-5-carbonyl}-amino]-propionic acid] showed a pIC50 [1] of 7.92 and a pIC50 [2] of 8.52.

`Cc1nc(OCCCc2cccc(O)c2)sc1C(=O)N[C@@H](CNC(=O)c1cccs1)C(=O)O` [Example 13, (S)-2-({2-[3-(3-Hydroxy-phenyl)-propoxy]-4-methyl-thiazole-5-carbonyl}-amino)-3-[(thiophene-2-carbonyl)-amino]-propionic acid] was tested, and the pIC50 [1] was less than 5.52 and the pIC50 [2] was 7.28.

With `Cc1nc(NC(=O)Cc2cccc(O)c2)sc1C(=O)N[C@@H](CNC(=O)c1ccsc1)C(=O)O` [Example 7, (S)-2-({2-[2-(3-Hydroxy-phenyl)-acetylamino]-4-methyl-thiazole-5-carbonyl}-amino)-3-[(thiophene-3-carbonyl)-amino]-propionic acid] the pIC50 [1] was 7.52 and the pIC50 [2] was 8.30.

Work on `Cc1cc(C(=O)NCc2cccc(O)c2)sc1C(=O)N[C@@H](CNC(=O)c1cccc(O)c1)C(=O)O` [Example 40] yielded a pIC50 [1] of 7.64 and a pIC50 [2] of 8.70.

In the case of `Cc1cc(C(=O)NCc2ccc(F)c(O)c2)sc1C(=O)N[C@@H](CNC(=O)c1cccs1)C(=O)O` [Example 64, (S)-2-{[5-(4-Fluoro-3-hydroxy-benzylcarbamoyl)-3-methyl-thiophene-2-carbonyl]-amino}-3-[(thiophene-2-carbonyl)-amino]-propionic acid], the pIC50 [1] was less than 5.52 and the pIC50 [2] was 7.96.

`O=C(NC[C@H](NC(=O)c1sc(C(=O)NCc2cccc(O)c2)cc1Cl)C(=O)O)c1cccs1` [Example 54, (S)-2-{[3-Chloro-5-(3-hydroxy-benzylcarbamoyl)-thiophene-2-carbonyl]-amino}-3-[(thiophene-2-carbonyl)-amino]-propionic acid] was tested, and the pIC50 [1] was 7.21 and the pIC50 [2] was 8.15.

`Cc1cc(C(=O)NCc2cccc(O)c2)sc1C(=O)N[C@@H](CNC(=O)c1cc(=O)[nH]c(=O)[nH]1)C(=O)O` [Example 39] showed a pIC50 [1] of less than 5.52 and a pIC50 [2] of 7.26.

For `Cc1cc(C(=O)NCc2cccc(O)c2)sc1C(=O)N[C@@H](CNC(=O)c1ccc2[nH]cnc2c1)C(=O)O` [Example 42], the pIC50 [1] was less than 5.52 and the pIC50 [2] was 7.46.

Compound `CC(C)c1cc(C(=O)NCc2cccc3[nH]ncc23)sc1C(=O)N[C@@H](CNC(=O)c1cccs1)C(=O)O` [Example 60, (S)-2-([5-[(1H-Indazol-4-ylmethyl)-carbamoyl]-3-isopropyl-thiophene-2-carbonyl]-amino)-3-[(thiophene-2-carbonyl)-amino]-propionic acid] has a pIC50 [1] of 7.77 and a pIC50 [2] of 7.31.

With `Cc1nc(NCCc2cccc(O)c2)sc1C(=O)N[C@@H](CNC(=O)c1cc(O)cc(O)c1)C(=O)O` [Example 12, (S)-3-(3,5-Dihydroxy-benzoylamino)-2-({2-[2-(3-hydroxy-phenyl)-ethylamino]-4-methyl-thiazole-5-carbonyl}-amino)-propionic acid] the pIC50 [1] was 7.57 and the pIC50 [2] was 7.89.

`Cc1cc(C(=O)NCCc2cccc(O)c2)sc1C(=O)N[C@@H](CNC(=O)c1cc(O)cc(O)c1)C(=O)O` [Example 49, (S)-3-(3,5-dihydroxy-benzoylamino)-2-([5-[2-(3-hydroxy-phenyl)-ethyl-carbamoyl]-3-methyl-thiophen-2-carbonyl]-amino)-propionic acid] gave a pIC50 [1] of 6.68 and a pIC50 [2] of 7.74.

Compound `CC(C)c1cc(C(=O)NCc2cccc(O)c2)sc1C(=O)N[C@@H](CNC(=O)c1cccs1)C(=O)O` [Example 59, (S)-2-{[5-(3-Hydroxy-benzylcarbamoyl)-3-isopropyl-thiophene-2-carbonyl]-amino}-3-[(thiophene-2-carbonyl)-amino]-propionic acid] has a pIC50 [1] of 7.34 and a pIC50 [2] of 7.54.

Compound `O=C(NC[C@H](NC(=O)c1sc(C(=O)NCc2cccc3[nH]ncc23)cc1C(F)(F)F)C(=O)O)c1cccs1` [Example 58, (S)-2-({5-[(1H-Indazol-4-ylmethyl)-carbamoyl]-3-trifluoromethyl-thiophene-2-carbonyl}-amino)-3-[(thiophene-2-carbonyl)-amino]-propionic acid] has a pIC50 [1] of 7.26 and a pIC50 [2] of 7.39.

In the case of `CCc1cc(C(=O)NCc2cccc3[nH]ncc23)sc1C(=O)N[C@@H](CNC(=O)c1cccs1)C(=O)O` [Example 62, (S)-2-({3-Ethyl-5-[(1H-indazol-4-ylmethyl)-carbamoyl]-thiophene-2-carbonyl}-amino)-3-[(thiophene-2-carbonyl)-amino]-propionic acid], the pIC50 [1] was 7.60 and the pIC50 [2] was 7.68.

For `Cc1cc(C(=O)NCc2cccc(O)c2)sc1C(=O)N[C@@H](CNC(=O)c1cnccn1)C(=O)O` [Example 41], the pIC50 [1] was less than 5.52 and the pIC50 [2] was 7.68.

`O=C(Cc1cccc(O)c1)Nc1nc(C(F)(F)F)c(C(=O)N[C@@H](CNC(=O)c2cccs2)C(=O)O)s1` [Example 9, (S)-2-([2-[2-(3-Hydroxy-phenyl)-acetylamino]-4-trifluoromethyl-thiazole-5-carbonyl]-amino)-3-[(thiophene-2-carbonyl)-amino]-propionic acid] gave a pIC50 [1] of 7.09 and a pIC50 [2] of 7.52.
